Activity calls are given as the source filed them.
What was measured:
ORF 73 = target: T1, ORF 73 (Human herpesvirus 8, UniProt O40947); assay: KSHV LANA DNA-binding disruption – biochemical, fluorescence polarization, cherry-picked samples, dose response (AID 504725); parameters: species or system Human gammaherpesvirus 8;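 further: fluorescence polarization of a labeled DNA duplex reporting LANA DNA binding; potency is for inhibitors that block LANA binding to the DNA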
T1 sequence (O40947 whole entry): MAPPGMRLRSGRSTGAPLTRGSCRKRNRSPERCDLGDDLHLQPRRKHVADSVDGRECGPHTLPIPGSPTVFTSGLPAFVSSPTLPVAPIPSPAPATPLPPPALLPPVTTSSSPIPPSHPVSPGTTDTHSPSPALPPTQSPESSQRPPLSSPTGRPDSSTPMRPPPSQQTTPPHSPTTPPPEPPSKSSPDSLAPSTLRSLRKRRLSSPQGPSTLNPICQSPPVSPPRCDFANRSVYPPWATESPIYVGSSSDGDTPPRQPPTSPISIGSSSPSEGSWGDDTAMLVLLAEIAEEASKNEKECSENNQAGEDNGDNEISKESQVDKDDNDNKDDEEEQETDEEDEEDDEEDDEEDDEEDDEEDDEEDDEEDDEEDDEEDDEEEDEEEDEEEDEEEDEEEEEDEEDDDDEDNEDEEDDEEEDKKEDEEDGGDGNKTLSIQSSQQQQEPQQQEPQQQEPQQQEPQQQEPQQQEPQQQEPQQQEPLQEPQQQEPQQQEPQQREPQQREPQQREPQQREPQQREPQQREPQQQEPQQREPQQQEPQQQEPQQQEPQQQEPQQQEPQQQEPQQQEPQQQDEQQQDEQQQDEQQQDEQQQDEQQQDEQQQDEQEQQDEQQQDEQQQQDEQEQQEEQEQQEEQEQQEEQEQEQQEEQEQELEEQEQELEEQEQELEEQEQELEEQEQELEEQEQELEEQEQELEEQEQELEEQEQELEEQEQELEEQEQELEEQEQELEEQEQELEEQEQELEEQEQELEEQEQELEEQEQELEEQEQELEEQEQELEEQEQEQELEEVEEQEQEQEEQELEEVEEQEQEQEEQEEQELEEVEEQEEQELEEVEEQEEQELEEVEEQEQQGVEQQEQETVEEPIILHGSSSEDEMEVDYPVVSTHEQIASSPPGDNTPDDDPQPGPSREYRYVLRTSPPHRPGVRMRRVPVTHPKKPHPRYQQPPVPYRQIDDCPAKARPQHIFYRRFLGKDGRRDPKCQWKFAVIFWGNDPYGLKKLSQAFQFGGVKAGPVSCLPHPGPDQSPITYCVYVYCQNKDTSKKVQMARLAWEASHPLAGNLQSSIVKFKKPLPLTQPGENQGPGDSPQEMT

Insulin-degrading enzyme [1] = target: T2, Insulin-degrading enzyme (Homo sapiens, UniProt P14735); assay: recombinant IDE activation, cell-free – biochemical, fluorescence polarization, counter-screen for IDE activator project, dose response (AID 588681)
T2 sequence (P14735 whole entry): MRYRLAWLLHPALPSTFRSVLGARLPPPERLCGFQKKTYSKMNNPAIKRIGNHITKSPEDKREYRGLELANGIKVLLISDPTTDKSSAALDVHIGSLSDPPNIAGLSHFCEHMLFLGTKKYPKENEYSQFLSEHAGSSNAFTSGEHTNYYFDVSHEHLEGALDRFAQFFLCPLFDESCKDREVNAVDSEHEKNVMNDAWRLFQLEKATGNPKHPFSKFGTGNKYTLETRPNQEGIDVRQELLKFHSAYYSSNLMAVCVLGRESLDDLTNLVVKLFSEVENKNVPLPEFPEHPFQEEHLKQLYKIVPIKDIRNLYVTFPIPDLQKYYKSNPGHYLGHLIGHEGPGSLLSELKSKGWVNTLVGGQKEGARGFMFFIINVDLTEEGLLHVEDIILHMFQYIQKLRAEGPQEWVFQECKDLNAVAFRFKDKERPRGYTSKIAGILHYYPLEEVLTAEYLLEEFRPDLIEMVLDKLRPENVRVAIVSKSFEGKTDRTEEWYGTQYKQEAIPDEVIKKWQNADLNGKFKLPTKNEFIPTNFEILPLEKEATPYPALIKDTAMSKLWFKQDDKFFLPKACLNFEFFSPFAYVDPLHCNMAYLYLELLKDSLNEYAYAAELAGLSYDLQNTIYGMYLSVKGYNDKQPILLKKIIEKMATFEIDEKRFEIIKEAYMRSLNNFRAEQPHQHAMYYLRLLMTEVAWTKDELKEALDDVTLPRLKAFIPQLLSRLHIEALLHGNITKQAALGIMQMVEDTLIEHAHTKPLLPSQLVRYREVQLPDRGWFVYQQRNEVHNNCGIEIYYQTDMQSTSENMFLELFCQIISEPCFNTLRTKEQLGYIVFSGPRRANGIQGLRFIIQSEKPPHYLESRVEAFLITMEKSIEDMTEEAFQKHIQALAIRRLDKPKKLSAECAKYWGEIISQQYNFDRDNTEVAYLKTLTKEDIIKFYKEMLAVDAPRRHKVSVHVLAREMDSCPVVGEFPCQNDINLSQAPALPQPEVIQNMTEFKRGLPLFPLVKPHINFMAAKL

Insulin-degrading enzyme [2] = target: T2, Insulin-degrading enzyme; assay: cellular IDE activation of Abeta substrate cleavage – fluorescence polarization, HEK cells, dose response (AID 588439); assay type: functional, cell-based
HEK293 [3] = assay: membrane integrity loss in HEK cells – cell-based, fluorescence, cytotoxicity control for IDE activator project, dose response (AID 588440); assay type: functional; conditions: Homo sapiens;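 further: cytotoxicity by LDH release measuring loss of membrane integrity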
HEK293 [4] = assay: optical interference in Abeta FP readout, dose response, artefact control for IDE activator project, biochemical, fluorescence polarization (AID 588442); assay type: functional, cell-based; conditions: Homo sapiens
[5] = target: T3, Mitochondrial peptide methionine sulfoxide reductase (Bos taurus, UniProt P54149); assay: Absorbance-based biochemical high throughput dose response assay for activators of Methionine sulfoxide reductase A (MsrA).; assay type: functional
T3 sequence (P54149 whole entry): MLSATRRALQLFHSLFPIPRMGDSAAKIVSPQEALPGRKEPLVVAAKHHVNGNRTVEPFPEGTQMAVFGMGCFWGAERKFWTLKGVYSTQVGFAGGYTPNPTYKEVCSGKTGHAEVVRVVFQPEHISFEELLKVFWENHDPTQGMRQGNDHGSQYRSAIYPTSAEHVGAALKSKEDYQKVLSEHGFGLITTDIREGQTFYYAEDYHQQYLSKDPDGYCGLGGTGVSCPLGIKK

HeLa = assay: ATP-based viability loss in HeLa cells – cell-based, CellTiter-Glo luminescence, cherry-pick samples, cytotoxicity control for MITF activator project, dose response (AID 540259); assay type: functional; conditions: Homo sapiens
Protein skinhead-1 = target: T4, Protein skinhead-1 (Caenorhabditis elegans, UniProt P34707); assay type: functional
T4 sequence (P34707 whole entry): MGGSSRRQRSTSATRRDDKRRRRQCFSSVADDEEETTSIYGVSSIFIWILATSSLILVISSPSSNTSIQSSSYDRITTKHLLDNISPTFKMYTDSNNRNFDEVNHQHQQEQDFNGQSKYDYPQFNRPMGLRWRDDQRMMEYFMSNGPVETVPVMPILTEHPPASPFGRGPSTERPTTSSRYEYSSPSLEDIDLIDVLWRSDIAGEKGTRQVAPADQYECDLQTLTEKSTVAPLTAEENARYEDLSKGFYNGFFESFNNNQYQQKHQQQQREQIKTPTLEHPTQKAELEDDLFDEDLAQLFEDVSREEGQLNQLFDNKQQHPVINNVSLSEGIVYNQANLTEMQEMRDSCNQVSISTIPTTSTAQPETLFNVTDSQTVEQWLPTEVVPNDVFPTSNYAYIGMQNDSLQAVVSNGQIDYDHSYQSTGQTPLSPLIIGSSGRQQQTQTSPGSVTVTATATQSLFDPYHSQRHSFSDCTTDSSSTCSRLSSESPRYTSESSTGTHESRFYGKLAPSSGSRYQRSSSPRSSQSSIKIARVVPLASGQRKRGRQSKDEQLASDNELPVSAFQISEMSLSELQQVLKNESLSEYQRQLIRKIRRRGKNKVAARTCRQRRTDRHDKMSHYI

[6] = target: T3, Mitochondrial peptide methionine sulfoxide reductase; assay type: functional
[7] = target: DNA (cytosine-5)-methyltransferase 1 (Homo sapiens, UniProt P26358); assay: inhibition of DNA methylation by DNMT1 – biochemical, fluorescent molecular beacon, confirmation (AID 602386); assay type: functional
[8] = target: Adenosylmethionine-8-amino-7-oxononanoate aminotransferase (Mycobacterium tuberculosis, UniProt P9WQ81); assay: Mycobacterium tuberculosis BioA enzyme inhibitor Measured in Biochemical System Using Plate Reader - 2163-02_Inhibitor_Dose_CherryPick_Activity.; assay type: functional, Mycobacterium tuberculosis UT205
[9] = target: Peroxisome proliferator-activated receptor gamma/Nuclear receptor coactivator 2 (Homo sapiens, UniProt P37231); assay type: functional;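 further: agonist potency for raising coactivator recruitment to the receptor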
[10] = target: Peroxisome proliferator-activated receptor gamma/Nuclear receptor coactivator 1 (Homo sapiens, UniProt P37231); assay type: functional;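 further: agonist potency as compounds enhance coactivator SRC-1 recruitment to PPARgamma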
[11] = target: Peroxisome proliferator-activated receptor gamma/Nuclear receptor coactivator 3 (Homo sapiens, UniProt P37231); assay type: functional;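 further: agonist potency for raising coactivator recruitment to the receptor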
BJ [12] = assay: BJ-TERT fibroblast viability loss – cell-based, RAS-independent, luminescence, dose response (AID 1933); assay type: functional; conditions: Homo sapiens
BJ [13] = assay: cells; assay type: functional, cell-based; conditions: Homo sapiens
BJ [14] = assay: BJ-TERT-LT-ST fibroblast viability loss – cell-based, RAS-independent, luminescence, dose response (AID 1935); assay type: functional; conditions: Homo sapiens;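 further: BJ fibroblasts immortalized with TERT plus LT and ST oncogenes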
[15] = DRD fibroblast viability loss – cell-based, non-viral oncogenic, luminescence, dose response (AID 1934); assay type: functional; conditions: Homo sapiens
BJ [16] = assay: growth inhibition of engineered Ras-driven BJ cells – cell-based, alamar blue fluorescence, cherrypicked samples, dose response (AID 2631); assay type: functional; conditions: Homo sapiens;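 further: confirmatory dose-response assay in RAS-dependent BJ fibroblasts engineered with TERT, LT and ST, with cytotoxicity read by fluorescence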
Interleukin-8 [17] = target: T5, Interleukin-8 (Homo sapiens, UniProt P10145); assay: Dose Response confirmation of uHTS small molecule hits for cystic fibrosis induced NFkb Inhibitors in a TNFa-induced IL8 counterscreen.; assay type: functional; conditions: read-out: IC50_Mean
T5 sequence (P10145 whole entry): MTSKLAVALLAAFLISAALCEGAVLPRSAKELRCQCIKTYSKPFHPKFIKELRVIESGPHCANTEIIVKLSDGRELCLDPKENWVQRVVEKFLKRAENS

Interleukin-8 [18] = target: T5, Interleukin-8; assay: Dose Response confirmation of uHTS small molecule hits for cystic fibrosis induced NFkb Inhibitors in a PAF-induced IL8 counterscreen.; assay type: functional; conditions: read-out: IC50_Mean
[19] = toxicity toward HepG2 liver cells – cell-based, plate reader, cherry-pick, antagonist series, cytotoxicity control, dose response (AID 743416); assay type: functional
[20] = blockers of bursicon-stimulated LGR2 cAMP reporter – cell-based, HEK293, CRE-luciferase reporter, cherry pick, set 2, dose response (AID 743343); assay type: functional;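 further: transfected cells were stimulated with diluted bursicon conditioned medium after compound addition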
[21] = blockade of melanocortin 4 receptor signaling – cell-based, plate reader, cherry pick, counter-screen for LGR2 antagonist project, dose response (AID 743444); assay type: functional;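 further: transfected HEK 293 cells stimulated with alpha-MSH peptide; potency of inhibitors of the alpha-MSH evoked signal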
[22] = target: T6, Low molecular weight phosphotyrosine protein phosphatase (Homo sapiens, UniProt P24666); assay type: functional; conditions: read-out: IC50_Mean;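 further: Dose-response confirmation assay measuring inhibition of LMPTP enzyme activity by fluorescence intensity read-out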
T6 sequence (P24666 whole entry): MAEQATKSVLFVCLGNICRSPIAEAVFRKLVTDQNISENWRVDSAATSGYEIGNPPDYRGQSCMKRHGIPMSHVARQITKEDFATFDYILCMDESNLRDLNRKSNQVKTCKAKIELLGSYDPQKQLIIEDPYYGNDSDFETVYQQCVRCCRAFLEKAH

Sequence of Adenosylmethionine-8-amino-7-oxononanoate aminotransferase (P9WQ81 whole entry): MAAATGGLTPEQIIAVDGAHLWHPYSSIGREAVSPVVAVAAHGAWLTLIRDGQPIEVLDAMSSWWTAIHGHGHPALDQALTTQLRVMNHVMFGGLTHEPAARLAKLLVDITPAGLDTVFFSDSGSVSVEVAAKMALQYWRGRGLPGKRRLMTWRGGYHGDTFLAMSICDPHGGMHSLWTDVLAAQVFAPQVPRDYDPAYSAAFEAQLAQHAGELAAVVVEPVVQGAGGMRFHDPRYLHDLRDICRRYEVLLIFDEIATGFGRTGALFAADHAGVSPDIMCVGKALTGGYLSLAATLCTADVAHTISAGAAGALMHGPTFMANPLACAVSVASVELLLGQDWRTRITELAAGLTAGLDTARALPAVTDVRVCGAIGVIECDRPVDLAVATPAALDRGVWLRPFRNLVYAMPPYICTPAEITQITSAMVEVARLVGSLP
Sequence of DNA (cytosine-5)-methyltransferase 1 (P26358 whole entry): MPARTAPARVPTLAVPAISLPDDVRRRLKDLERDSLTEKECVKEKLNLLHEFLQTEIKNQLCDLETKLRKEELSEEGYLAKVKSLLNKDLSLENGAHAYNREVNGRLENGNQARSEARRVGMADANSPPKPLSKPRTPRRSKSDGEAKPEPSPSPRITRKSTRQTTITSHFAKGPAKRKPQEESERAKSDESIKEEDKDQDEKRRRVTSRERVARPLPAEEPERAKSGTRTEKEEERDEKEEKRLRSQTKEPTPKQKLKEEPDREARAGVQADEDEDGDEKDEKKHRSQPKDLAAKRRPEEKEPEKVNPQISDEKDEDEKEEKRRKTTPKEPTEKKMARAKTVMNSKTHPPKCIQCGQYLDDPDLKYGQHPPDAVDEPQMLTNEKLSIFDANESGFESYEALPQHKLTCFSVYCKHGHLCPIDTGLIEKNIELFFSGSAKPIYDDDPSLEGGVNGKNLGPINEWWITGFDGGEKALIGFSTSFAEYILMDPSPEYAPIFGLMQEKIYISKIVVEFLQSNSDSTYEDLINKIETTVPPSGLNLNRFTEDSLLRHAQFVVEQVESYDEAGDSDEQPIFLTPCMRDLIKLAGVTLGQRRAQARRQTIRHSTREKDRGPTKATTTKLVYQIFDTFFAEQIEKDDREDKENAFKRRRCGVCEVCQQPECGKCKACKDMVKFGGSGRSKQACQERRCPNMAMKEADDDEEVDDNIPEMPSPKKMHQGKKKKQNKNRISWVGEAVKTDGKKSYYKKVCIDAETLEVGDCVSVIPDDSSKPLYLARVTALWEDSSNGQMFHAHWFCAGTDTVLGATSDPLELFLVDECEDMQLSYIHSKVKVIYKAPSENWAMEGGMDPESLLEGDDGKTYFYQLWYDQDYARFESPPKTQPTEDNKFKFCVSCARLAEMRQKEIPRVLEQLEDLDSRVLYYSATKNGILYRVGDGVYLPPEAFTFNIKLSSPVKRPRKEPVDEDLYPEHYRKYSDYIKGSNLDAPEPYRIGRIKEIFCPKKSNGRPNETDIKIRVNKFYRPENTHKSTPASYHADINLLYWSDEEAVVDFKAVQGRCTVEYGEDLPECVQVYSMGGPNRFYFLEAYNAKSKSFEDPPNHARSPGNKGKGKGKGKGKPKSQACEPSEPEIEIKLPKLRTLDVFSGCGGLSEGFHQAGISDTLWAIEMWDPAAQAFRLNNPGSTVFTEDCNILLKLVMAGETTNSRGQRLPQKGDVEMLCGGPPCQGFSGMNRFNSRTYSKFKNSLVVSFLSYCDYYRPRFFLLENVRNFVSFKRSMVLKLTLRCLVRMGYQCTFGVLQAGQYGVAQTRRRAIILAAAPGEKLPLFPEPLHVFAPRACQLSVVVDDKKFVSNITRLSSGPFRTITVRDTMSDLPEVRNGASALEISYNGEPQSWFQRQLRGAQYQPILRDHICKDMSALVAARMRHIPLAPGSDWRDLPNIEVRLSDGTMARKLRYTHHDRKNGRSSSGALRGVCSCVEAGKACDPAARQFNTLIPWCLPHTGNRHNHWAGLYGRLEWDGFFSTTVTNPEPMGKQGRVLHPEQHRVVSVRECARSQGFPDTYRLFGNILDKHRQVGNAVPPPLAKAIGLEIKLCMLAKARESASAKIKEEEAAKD
Sequence of Peroxisome proliferator-activated receptor gamma/Nuclear receptor coactivator 2 (P37231 whole entry): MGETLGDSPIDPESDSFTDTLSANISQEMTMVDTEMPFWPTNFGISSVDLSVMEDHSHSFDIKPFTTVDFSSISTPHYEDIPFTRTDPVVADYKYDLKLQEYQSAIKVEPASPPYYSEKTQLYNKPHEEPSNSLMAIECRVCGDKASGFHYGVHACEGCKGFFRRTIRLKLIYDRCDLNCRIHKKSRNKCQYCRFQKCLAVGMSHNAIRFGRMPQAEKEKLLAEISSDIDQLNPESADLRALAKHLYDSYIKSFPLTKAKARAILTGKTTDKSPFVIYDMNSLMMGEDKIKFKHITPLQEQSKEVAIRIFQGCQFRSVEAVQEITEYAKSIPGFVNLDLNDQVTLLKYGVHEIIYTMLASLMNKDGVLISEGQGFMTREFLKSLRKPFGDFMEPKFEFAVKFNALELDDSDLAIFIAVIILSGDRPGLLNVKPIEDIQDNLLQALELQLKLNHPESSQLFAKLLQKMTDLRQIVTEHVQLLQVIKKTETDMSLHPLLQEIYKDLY
Sequence of Peroxisome proliferator-activated receptor gamma/Nuclear receptor coactivator 2 (Q15596 whole entry, further chain): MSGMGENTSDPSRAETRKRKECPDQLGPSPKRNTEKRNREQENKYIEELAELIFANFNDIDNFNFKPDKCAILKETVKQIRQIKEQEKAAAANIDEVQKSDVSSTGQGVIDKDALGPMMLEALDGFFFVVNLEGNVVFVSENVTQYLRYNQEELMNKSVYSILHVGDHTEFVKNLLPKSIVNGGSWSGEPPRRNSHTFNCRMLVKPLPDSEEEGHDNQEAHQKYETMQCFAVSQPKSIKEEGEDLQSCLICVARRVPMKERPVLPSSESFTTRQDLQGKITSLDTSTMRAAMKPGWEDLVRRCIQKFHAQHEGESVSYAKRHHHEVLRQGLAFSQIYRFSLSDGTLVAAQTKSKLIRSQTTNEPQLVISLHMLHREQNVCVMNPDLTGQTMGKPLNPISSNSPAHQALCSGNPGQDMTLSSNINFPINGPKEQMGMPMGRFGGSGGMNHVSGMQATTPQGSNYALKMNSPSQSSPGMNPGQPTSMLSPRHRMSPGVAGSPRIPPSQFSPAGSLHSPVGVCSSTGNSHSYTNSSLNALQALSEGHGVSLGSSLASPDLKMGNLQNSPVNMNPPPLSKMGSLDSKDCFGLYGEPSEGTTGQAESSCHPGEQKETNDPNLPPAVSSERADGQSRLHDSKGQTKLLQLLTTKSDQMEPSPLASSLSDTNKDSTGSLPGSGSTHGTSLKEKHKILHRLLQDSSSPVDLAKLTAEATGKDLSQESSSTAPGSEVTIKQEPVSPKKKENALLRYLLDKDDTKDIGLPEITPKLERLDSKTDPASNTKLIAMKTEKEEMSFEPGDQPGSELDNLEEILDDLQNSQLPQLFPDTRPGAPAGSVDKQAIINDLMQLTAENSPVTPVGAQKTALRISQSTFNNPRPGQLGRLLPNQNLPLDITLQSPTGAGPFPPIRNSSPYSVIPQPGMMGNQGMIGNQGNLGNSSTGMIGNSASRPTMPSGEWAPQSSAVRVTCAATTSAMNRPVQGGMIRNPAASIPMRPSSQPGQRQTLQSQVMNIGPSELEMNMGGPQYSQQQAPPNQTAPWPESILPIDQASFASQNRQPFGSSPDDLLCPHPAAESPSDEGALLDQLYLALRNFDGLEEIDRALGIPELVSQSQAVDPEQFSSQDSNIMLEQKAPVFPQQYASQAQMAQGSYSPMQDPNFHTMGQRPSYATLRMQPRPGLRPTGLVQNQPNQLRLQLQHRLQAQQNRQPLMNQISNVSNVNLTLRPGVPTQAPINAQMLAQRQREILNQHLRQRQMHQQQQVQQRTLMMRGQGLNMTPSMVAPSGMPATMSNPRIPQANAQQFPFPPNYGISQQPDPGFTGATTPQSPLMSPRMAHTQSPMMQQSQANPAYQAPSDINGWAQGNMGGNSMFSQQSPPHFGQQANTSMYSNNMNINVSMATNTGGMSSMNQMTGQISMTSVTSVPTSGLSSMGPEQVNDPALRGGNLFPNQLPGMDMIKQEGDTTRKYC

## CC(=O)OCCn1c2nc(=O)[nH]c(=O)c-2nc2cc(C)c(C)cc21
ORF 73
  AC50: 0.246 µM (active)
Insulin-degrading enzyme [1]
  EC50: > 54.7 µM (inactive)
Insulin-degrading enzyme [2]
  EC50: > 54.7 µM (inactive)
HEK293 [3]
  IC50: > 89.2 µM (inactive)
HEK293 [4]
  EC50: > 54.7 µM (inactive)
[5]
  EC50: 54.4 µM (inactive)

## Clc1ccccc1/C=C/c1nc(-c2cccnc2)no1
HeLa
  AC50: 54.3 µM (active)
Protein skinhead-1
  IC50: > 100 µM (inactive)

## COc1ccc(CNC(=O)c2ccc(=O)oc2)cc1OC
[6]
  IC50: 151 µM (inactive)

## Cn1c2ccccc2c2c(=O)oc3ccccc3c21
[7]
  IC50: > 99 µM (inactive)

## Cc1cc2c(c(=O)n1Cc1cccnc1)C(c1cccs1)C(C#N)=C(N)O2 (stereo unspecified)
[8]
  AC50: 2.08 µM (active)

## COc1ccc2c(-c3ccccc3)cc(SCC(=O)NC(N)=O)nc2c1
[9]
  EC50: > 79.4 µM (not active)
[10]
  EC50: > 79.4 µM (not active)
[11]
  EC50: > 79.4 µM (not active)
Insulin-degrading enzyme [1]
  EC50: > 54.7 µM (inactive)
Insulin-degrading enzyme [2]
  EC50: > 54.7 µM (inactive)
HEK293 [3]
  IC50: 22.3 µM (inactive)
HEK293 [4]
  EC50: > 55.9 µM (inactive)

## O=C(NC1CCCC1)c1cnn2c(C(F)(F)F)cc(-c3ccc4c(c3)OCO4)nc12
Insulin-degrading enzyme [1]
  EC50: > 54.7 µM (inactive)
Insulin-degrading enzyme [2]
  EC50: > 54.7 µM (inactive)
HEK293 [3]
  IC50: > 89.2 µM (inactive)
HEK293 [4]
  EC50: > 55.9 µM (inactive)

## Cc1ccc(/C=N/NC(=O)c2cc(-c3ccncc3)nc3ccccc23)o1
BJ [12]
  EC50: 2.77 µM (active)
BJ [13]
  EC50: 37.5 µM (inconclusive)
BJ [14]
  EC50: 25.4 µM (active)
[15]
  EC50: 2.27 µM (active)
BJ [16]
  EC50: 1.41 µM (active)

## COc1ccc(N/C=C/C(=O)c2cc(OC)c(OC)c(OC)c2)cc1
BJ [12]
  EC50: 0.666 µM (active)
BJ [13]
  EC50: 20.5 µM (inconclusive)
BJ [14]
  EC50: 0.441 µM (inconclusive)
[15]
  EC50: 0.603 µM (active)
BJ [16]
  EC50: 0.133 µM (active)

## COc1ccccc1N1CCN(/N=C/c2ccc(Cl)c([N+](=O)[O-])c2)CC1
[7]
  IC50: > 99 µM (inactive)

## Cc1ccc(-c2cc(C(=O)N(C)Cc3cnn(C)c3C)c3cc(Br)ccc3n2)cc1
Interleukin-8 [17]
  IC50: > 79 µM (inactive)
Interleukin-8 [18]
  IC50: 1.11 µM (active)
[19]
  AC50: 43.1 µM (active)
[20]
  AC50: 29.1 µM (active)
[21]
  AC50: 26.6 µM (active)

## C=CCc1cccc2cc(C(=O)NCc3cccnc3)c(=O)oc12
[22]
  IC50: 21.2 µM (inactive)

## COc1cc2c(cc1NC(=O)c1cccnc1)CCCC2
Protein skinhead-1
  IC50: > 100 µM (inactive)
[8]
  AC50: 9.76 µM (active)

From ChEMBL document CHEMBL1201862, “PubChem BioAssay data set” (2004)
